Target: T1, chorismate-pyruvate lyase of Citrobacter youngae (Citrobacter youngae, UniProt A0ABM8MN84, A17E/A70K/G54A/S20A/T66M)
T1 sequence (A0ABM8MN84 1-165 A17E/S20A/G54A/T66M/A70K): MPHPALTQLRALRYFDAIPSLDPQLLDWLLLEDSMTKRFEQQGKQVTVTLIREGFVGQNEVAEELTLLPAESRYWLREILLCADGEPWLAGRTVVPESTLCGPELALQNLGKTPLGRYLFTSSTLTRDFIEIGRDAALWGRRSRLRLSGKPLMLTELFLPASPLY
Experiment: Product inhibition of chorismate-pyruvate lyase activity by 4-HBA (IC50)
Type: biochemical
Conditions: cell lysate supernatant of strain HBA13

O=C(O)c1ccc(O)cc1 [Strain 4-HBA, 4-hydroxybenzoic acid]
IC50: 67 µM
